# Source: PMC5684193 (2017)
# How the values were obtained:
# [1] = test system: CBA-0 (DNA, aptamer) CCCCCTGGGTCGGGAGGGAAGGGGGTTGGGGGTGCGG; assay: ITC; settings: 140 mM NaCl, 2.5 mM KCl, K/Na phosphate (PBS), 2.5 mM MgCl2; PBS with MgCl2, pH 7.4, 25 °C
# [2] = test system: CBA-1 (DNA, aptamer) CCCCCTGGGTCGGGAGGGAAGGGGGTTGGGGGTGCGGG; assay: ITC; settings: 140 mM NaCl, 2.5 mM KCl, K/Na phosphate (PBS), 2.5 mM MgCl2; PBS with MgCl2, pH 7.4, 25 °C
# [3] = test system: CBA-1-GGC (DNA, aptamer) CCCCCCCCTGGGTCGGGAGGGAAGGGGGGGGTTGGGGGGGGTGCGGG; assay: ITC; settings: 140 mM NaCl, 2.5 mM KCl, K/Na phosphate (PBS), 2.5 mM MgCl2; PBS with MgCl2, pH 7.4, 25 °C
# [4] = test system: CBA-1-AAT (DNA, aptamer) TTTCCCCCTGGGTCGGGAGGGAAGGGGGAAATTAAAGGGGGTGCGGG; assay: ITC; settings: 140 mM NaCl, 2.5 mM KCl, K/Na phosphate (PBS), 2.5 mM MgCl2; PBS with MgCl2, pH 7.4, 25 °C
# [5] = test system: CBA-1-GGC-4G4 (DNA, aptamer) CCCCCCCCTGGGGTCGGGGAGGGGAAGGGGGGGGTTGGGGGGGGTGCGGGG; assay: ITC; settings: 140 mM NaCl, 2.5 mM KCl, K/Na phosphate (PBS), 2.5 mM MgCl2; PBS with MgCl2, pH 7.4, 25 °C
# [6] = test system: CBA-1-G14A (DNA, aptamer) CCCCCTGGGTCGGAAGGGAAGGGGGTTGGGGGTGCGGG; assay: ITC; settings: 140 mM NaCl, 2.5 mM KCl, K/Na phosphate (PBS), 2.5 mM MgCl2; PBS with MgCl2, pH 7.4, 25 °C
# [7] = test system: CBA-1-G34T (DNA, aptamer) CCCCCTGGGTCGGGAGGGAAGGGGGTTGGGGGTTCGGG; assay: ITC; settings: 140 mM NaCl, 2.5 mM KCl, K/Na phosphate (PBS), 2.5 mM MgCl2; PBS with MgCl2, pH 7.4, 25 °C
# [8] = test system: CBA-1-strand1 (DNA, aptamer) AAAAATGGGTCGGGAGGGAAGGGGGTTGGGGGTGCGGG; assay: ITC; settings: 140 mM NaCl, 2.5 mM KCl, K/Na phosphate (PBS), 2.5 mM MgCl2; PBS with MgCl2, pH 7.4, 25 °C; 250 µM codeine in syringe
# [9] = test system: CBA-1-strand3 (DNA, aptamer) CCCCCTGGGTCGGGAGGGAAGGGGGTTTATATTGCGGG; assay: ITC; settings: 140 mM NaCl, 2.5 mM KCl, K/Na phosphate (PBS), 2.5 mM MgCl2; PBS with MgCl2, pH 7.4, 25 °C; 250 µM codeine in syringe
# [10] = test system: CBA-1-strand21 (DNA, aptamer) GGGGGTGGGTCGGGAGGGAACCCCCTTGGGGGTGCGGG; assay: ITC; settings: 140 mM NaCl, 2.5 mM KCl, K/Na phosphate (PBS), 2.5 mM MgCl2; PBS with MgCl2, pH 7.4, 25 °C; 250 µM codeine in syringe
# [11] = test system: CBA-1-3G3T (DNA, aptamer) CCCCCTTTTTCTTTATTTAAGGGGGTTGGGGGTGCTTT; assay: ITC; settings: 140 mM NaCl, 2.5 mM KCl, K/Na phosphate (PBS), 2.5 mM MgCl2; PBS with MgCl2, pH 7.4, 25 °C; 250 µM codeine in syringe
# [12] = test system: CBA-1-G34R (DNA, aptamer) CCCCCTGGGTCGGGAGGGAAGGGGGTTGGGGGTCGGG; assay: ITC; settings: 140 mM NaCl, 2.5 mM KCl, K/Na phosphate (PBS), 2.5 mM MgCl2; PBS with MgCl2, pH 7.4, 25 °C; 250 µM codeine in syringe
# [13] = test system: CBA-1-G34C35R (DNA, aptamer) CCCCCTGGGTCGGGAGGGAAGGGGGTTGGGGGTGGG; assay: ITC; settings: 140 mM NaCl, 2.5 mM KCl, K/Na phosphate (PBS), 2.5 mM MgCl2; PBS with MgCl2, pH 7.4, 25 °C; 250 µM codeine in syringe
# [14] = test system: CBA-1-1/CBA-1-2 (DNA, aptamer) CCCCCTGGGTCGGGAGGGAAGGGGGT/TGGGGGTGCGGG; assay: 1H NMR; settings: 140 mM NaCl, 2.5 mM KCl, K/Na phosphate (PBS), 10% D2O, 25 °C, 200 µM DNA, 400 µM codeine
# [15] = test system: FAM-labeled CBA-0 (DNA, aptamer) CCCCCTGGGTCGGGAGGGAAGGGGGTTGGGGGTGCGG; assay: DMS footprinting; settings: 140 mM NaCl, 2.5 mM KCl, K/Na phosphate (PBS), 2.5 mM MgCl2; binding buffer, room temperature
# [16] = test system: FAM-labeled CBA-1 (DNA, aptamer) CCCCCTGGGTCGGGAGGGAAGGGGGTTGGGGGTGCGGG; assay: DMS footprinting; settings: 140 mM NaCl, 2.5 mM KCl, K/Na phosphate (PBS), 2.5 mM MgCl2; binding buffer, room temperature
# [17] = test system: CBA-1 (DNA, aptamer) CCCCCTGGGTCGGGAGGGAAGGGGGTTGGGGGTGCGGG; assay: UV melting at 265 nm; settings: 140 mM NaCl, 2.5 mM KCl, K/Na phosphate (PBS), 2.5 mM MgCl2; PBS with MgCl2, pH 7.4; 4 µM DNA, 8 µM codeine
# [18] = test system: CBA-1-1/CBA-1-2 (DNA, aptamer) CCCCCTGGGTCGGGAGGGAAGGGGGT/TGGGGGTGCGGG; assay: UV melting at 265 nm; settings: 140 mM NaCl, 2.5 mM KCl, K/Na phosphate (PBS), 2.5 mM MgCl2; PBS with MgCl2, pH 7.4
# [19] = test system: CBA-1-A14AP (DNA, aptamer, 2-aminopurine at 14) CCCCCTGGGTCGGGAGGGAAGGGGGTTGGGGGTGCGGG; assay: 2-aminopurine fluorescence quenching; settings: 140 mM NaCl, 2.5 mM KCl, K/Na phosphate (PBS), 2.5 mM MgCl2; 1 µM codeine, 25 °C
# [20] = test system: CBA-1-A15AP (DNA, aptamer, 2-aminopurine at 15) CCCCCTGGGTCGGGAGGGAAGGGGGTTGGGGGTGCGGG; assay: 2-aminopurine fluorescence quenching; settings: 140 mM NaCl, 2.5 mM KCl, K/Na phosphate (PBS), 2.5 mM MgCl2; 1 µM codeine, 25 °C
# [21] = test system: CBA-1-A20AP (DNA, aptamer, 2-aminopurine at 20) CCCCCTGGGTCGGGAGGGAAGGGGGTTGGGGGTGCGGG; assay: 2-aminopurine fluorescence quenching; settings: 140 mM NaCl, 2.5 mM KCl, K/Na phosphate (PBS), 2.5 mM MgCl2; 1 µM codeine, 25 °C
smiles,measurement,setting,value
COc1ccc2c3c1O[C@H]1[C@@H](O)C=C[C@H]4[C@@H](C2)N(C)CC[C@@]341,Kd,[1],0.25 ± 0.08 µM
same,Kd,[2],0.07 ± 0.01 µM
same,Kd,[3],0.05 ± 0.02 µM
same,Kd,[4],0.07 ± 0.03 µM
same,Kd,[5],0.30 ± 0.17 µM
same,binding,[6],yes
same,binding,[7],weak
same,binding,[8],no
same,binding,[9],no
same,binding,[10],no
same,binding,[11],no
same,binding,[12],no
same,binding,[13],no
same,binding,[14],yes
same,binding,[15],yes
same,binding,[16],yes
same,binding,[17],yes
same,∆Tm,[18],~ 4 °C
same,binding,[19],yes
same,binding,[20],yes
same,binding,[21],yes
